From US20070243254A1, “NOVEL DRUG COMPOSITIONS AND DOSAGE FORMS OF TOPIRAMATE” (priority 2002, published 2007)
In brackets after ≈: the same amount, converted by molar mass. Read-outs that look alike come from different tables or passages of the source.

Legend:
[1] = equilibrium solubility of topiramate in de-ionized water and aqueous surfactant solutions; assay type: physicochemical; details: for solubility: de-ionized water
Description: As defined herein, the solubility of a pharmaceutical agent is determined by adding the pharmaceutical agent to stirred or agitated de-ionized water maintained in a constant temperature bath at a temperature of 37° C. until no more pharmaceutical agent dissolves. The resulting solution saturated with the pharmaceutical agent is then filtered, typically under pressure through a 0.8-micron Millipore filter, and the concentration of the pharmaceutical agent in the solution is measured by any appropriate analytical method including gravimetric, ultraviolet spectrophometry, chromatography, and the like. The solubility of the pharmaceutical agent is measured at equilibrium.
A drug composition of the present invention was prepared as follows. Aqueous solutions of five surfactants were prepared. The selected surfactants were four grades of ethylene oxide/propylene oxide/ethylene oxide (LUTROL grades F127, F87, F108, and F68) and PEG-40 stearate (MYRJ 52). Solutions were made at concentrations of 1, 5, and 15 weight percent. The aqueous surfactant blends solutions were chilled as necessary to promote complete dissolution of the surfactant prior to drug solubility studies.
The aqueous surfactant solutions were equilibrated to constant temperature in a 37° C. water bath. Then, neat topiramate drug was added slowly with stirring in approximately 10 mg increments to the surfactant solutions until no more drug dissolved. A control sample of drug dissolved in de-ionized water without surfactant was included for comparison purposes. The resulting saturated solutions of drug were filtered through 0.8 micron filters and analyzed for drug concentration by refractive index chromatography. The resulting solubility values were plotted as a function of both surfactant concentration and the hydrophilic-lipophilic balance value of each surfactant. FIG. 6 was constructed from the solubility values obtained and HLB data for each surfactant utilized.

[2] = cited from earlier work
[3] = cited from earlier work; remark: listed apart in the source

solubility in water in presence of surfactant ([1]; LUTROL F127, F87, F108, F68, MYRJ 52 at 1, 5, 15 weight percent, 37° C.): increased by each surfactant
solubility ([1]; water, thermodynamic from solid, without surfactant, 37° C., read-out: solubility in de-ionized water): ~12 mg/mL (≈ 35.4 mM)
solubility ([1]; read-out: solubility of neat topiramate (range)): 9.8 to 13 mg/mL (≈ 28.9 to 38.3 mM)
SMILES: CC1(C)O[C@@H]2[C@@H](CO[C@@]3(COS(N)(=O)=O)OC(C)(C)O[C@@H]23)O1 [topiramate, 2,3:4,5-bis-O-(1-methylethylidene)-β-D-fructopyranose sulfamate]
dose proportionality of pharmacokinetics ([2]; in vivo): linear
effect of food on pharmacokinetics ([2]; in vivo): not significantly affected by food
excretion ([2]; in vivo): excreted largely through the urine
mean elimination half life ([2]; in vivo): about 21 hours
metabolism ([2]; in vivo): not extensively metabolized
time to peak plasma drug concentrations ([2]; oral, immediate release dosage form): approximately 2 hours
solubility in organic solvents ([3]; acetone, dimethylsulfoxide, ethanol): soluble in acetone, dimethylsulfoxide and ethanol
solubility in alkaline solutions ([3]; alkaline solutions containing sodium hydroxide or sodium phosphate): soluble in alkaline solutions
solubility of topiramate in water ([3]; room temperature): about 9.8 mg/ml
